# Experimental data as given in PMC10644327, “A randomized, double‐blind phase 1b study evaluating the safety, tolerability, pharmacokinetics and pharmacodynamics of the NLRP3 inhibitor selnoflast in patients with moderate to severe active ulcerative colitis” (Clinical and Translational Medicine, 2023).
# Like-named read-outs stand apart in the source and are kept apart here.
# Columns and labels:
# [1] = system: calprotectin; assay: Stool calprotectin in UC patients; assay type: in vivo, human; conditions: Day 7, mean (± SD), selnoflast arm; results called uninterpretable (8/19 baseline samples not per protocol)
# Experimental: (§1) Tissue biopsies from the sigmoid colon were obtained before start of treatment (up to Day −3) and at the end of treatment (Day 7). For operational reasons, biopsies were taken 2−4.5 h post‐dose on Day 7. Stool samples were obtained at screening, before start of treatment, throughout the study, and at the 14‐day follow‐up visit. Levels of calprotectin were determined in stool samples. Sigmoid colon tissue was processed for RNA and DNA extraction as well as for single‐cell analysis, subsequent transcriptomic analysis, and identification of PD biomarkers. Sigmoid colon tissue samples were also processed for histology (hematoxylin and eosin staining, immunohistochemistry, fluorescence in situ hybridization) in order to characterize the cell types present (i.e., neutrophils and inflammatory monocytes). Histological analysis was performed on sigmoid colon tissue samples (from baseline and Day 7) using the disease‐specific histological indices Geboes score[23] and Nancy index.[24] Caspase‐1 (pro and active form) was assessed using a validated WES‐assay (manuscript in preparation).
# [2] = system: IL‐1 gene signature (CXCL1, CXCL2, CXCL3, CXCL5, CXCL6, CCL2, IL6, TNFAIP6); assay: IL‐1 gene signature in sigmoid colon tissue by qPCR; assay type: in vivo, human; conditions: mean [± SD], selnoflast arm, median log2FC of 8 genes
# Experimental: A predefined IL‐1 gene signature comprising eight genes (i.e., CXCL1, CXCL2, CXCL3, CXCL5, CXCL6, CCL2, IL6, TNFAIP6) relevant in the context of IBD was assessed in RNA extracted from the sigmoid colon tissue. The signature had been determined by combining gene expression data that met the following criteria: (1) overlapping expression profiles (upregulation by IL‐1β stimulation) in multiple cell types,[25] (2) differential expression in relevant cell types across published and proprietary single‐cell RNA‐sequencing (scRNA‐seq) datasets involving IBD patients and controls[26] and (3) co‐expression with the IL1R1 receptor and differential colonic gene expression between UC patients and healthy individuals. The 8‐gene panel was then assessed by quantitative PCR (qPCR) before and after treatment (baseline and Day 7), normalized to a set of housekeeping genes (B2M, GusB, HPRT1, MRLP19) and log2 fold changes (log2FC) from baseline were reported per gene as well as across the eight genes (median log2FC = gene signature).
# [3] = system: IL‐1β release in ex vivo stimulated whole blood; parameters: method as in unpublished results, study IZD334-001; conditions: healthy subjects, 450 mg QD, ref unpublished results, study IZD334-001, cited from earlier work
# [4] = parameters: method as in Investigator Brochure; conditions: ref Investigator Brochure, cited from earlier work
# [5] = system: cells isolated from the sigmoid colon; assay: Single‐cell RNA sequencing of sigmoid colon tissue; assay type: in vivo, human; conditions: pseudobulk method, baseline and Day 7
# Experimental: Single cell suspensions were obtained from cryopreserved sigmoid colon tissue samples through mechanical and enzymatic dissociation, and loaded onto a 10X chromium controller for cell partitioning. Single‐cell RNA‐sequencing libraries were prepared using 10X genomics NextGEM single‐cell 3′ version 3.1 reagents and sequenced on an Illumina NovaSeq 6000 sequencer. Quality control, data filtering, and data analysis was performed with the BESCA software (version 2.5.1)[27] and the RiBIOS software suite, as well as using custom scripts in both R (version 4.2.0) and Python (version 3.8).
# [6] = system: AIM2; parameters: method as in unpublished results; conditions: ref unpublished results; cited from earlier work
# [7] = system: Breast Cancer Resistance Protein (BCRP); parameters: method as in Investigator Brochure; conditions: in vitro studies; ref Investigator Brochure; cited from earlier work
# [8] = system: sigmoid colon tissue; assay: Histology of sigmoid colon biopsies (Geboes score, Nancy index, neutrophils); assay type: in vivo, human
# Experimental: as §1
# [9] = system: IL‐1β; assay: IL‐1β IC90 calculated from in vitro studies; assay type: cell-based; conditions: estimated
# [10] = cited from earlier work
# [11] = system: IL‐18; assay: Plasma IL‐18 (SIMOA) in UC patients; assay type: in vivo, human; conditions: 450 mg QD, 7 days
# Experimental: Blood samples were drawn pre‐dose and at various timepoints and placed in TruCulture whole blood collection and culture tubes that were pre‐filled with lipopolysaccharide (LPS) (final working concentration of 100 ng/mL LPS after addition of 1 mL of blood to the LPS‐containing Truculture tubes). Following 24 h incubation, TruCulture supernatants were collected, stored, and levels of secreted IL‐1β were subsequently measured in order to understand how these responded to NLRP3 inhibition by selnoflast. The levels of IL‐1β were also quantified in plasma K2EDTA samples using the same SIMOA IL‐1β Assay Kit (Quanterix). The quantitative range of the method was 0.196 to 490 pg/mL for plasma and 4.01 to 1470 pg/mL in Truculture supernatants. Plasma samples were also assessed for IL‐18, using a commercial SIMOA IL‐18 Assay Kit (Quanterix; the quantitative range for plasma was 0.0200–45.0 pg/mL).
# [12] = system: P-glycoprotein (P-gP); parameters: method as in Investigator Brochure; conditions: in vitro studies; ref Investigator Brochure; cited from earlier work
# [13] = parameters: method as in Investigator Brochure; conditions: ref Investigator Brochure, cited from earlier work; remark: listed apart in the source
# [14] = system: NLRC4; parameters: method as in unpublished results; conditions: ref unpublished results; cited from earlier work
# [15] = parameters: method as in Investigator Brochure; conditions: ref Investigator Brochure, cited from earlier work; remark: listed apart in the source
structure (smiles),measurement,setting,value
"CCN1CCC(S(=O)(=O)NC(=O)Nc2c3c(cc4c2CCC4)CCC3)CC1 [Selnoflast, selnoflast]",Stool calprotectin change from baseline,[1],+4146.6 (± 12321.12) μg/g
same,"IL‐1 gene signature, log2FC from baseline to Day 7",[2],−1.14 [± 1.8] log2FC
same,Inhibition of IL‐1β release compared to baseline,[3]; over the dosing interval (24 hours),over 90%
same,Inhibition of IL‐1β release compared to baseline,"[3]; over the dosing interval (24 hours), listed as RO7486967",90%
same,Inhibition of IL‐1β release compared to baseline,[3]; up to 10 h post‐dose,99%
same,Potential to cause direct hepatotoxicity,"[4]; at therapeutically relevant concentrations, based on in vitro assessments",low
same,Mitochondrial toxicity,[4]; in vitro,did not show mitochondrial toxicity
same,"Cellular composition and gene expression, difference between treatment arms",[5],No significant differences
same,Inhibitory activity on AIM2 inflammasome,[6],no inhibitory activity
same,BCRP substrate status,[7],potential substrate
same,"Geboes score and Nancy index, difference between study arms",[8]; baseline and Day 7,No notable differences
same,"Neutrophils in sigmoid colon tissue, change from baseline","[8]; mean (± SD), active treatment arm, Day 7",−13.23 (± 140.76) cells/mm^2
same,Patients with marked reduction from baseline in neutrophils in sigmoid colon tissue,"[8]; selnoflast‐treated patients, Day 7",Three out of the 13
same,IL‐1β IC90 (tissue),[9],1.94 µg/g
same,IC90,[9]; read-out: IL‐1β IC90 (plasma),2 µg/mL
same,Dose dependence of systemic exposure,"[10]; healthy subjects, 20 to 600 mg, ref unpublished results, IZD334‐001",approximately dose‐proportional
same,Median Tmax,"[10]; healthy subjects, single administration, 20 to 600 mg, fasted, ref unpublished results, IZD334‐001",30 to 360 min
same,Steady‐state achieved,"[10]; healthy subjects, ref unpublished results, IZD334‐001",Day 2
same,Change in exposure on repeat dosing,"[10]; healthy volunteers, repeat dosing for 7 days, ref study IZD334-001",no indication of a change
same,half-life,"[10]; healthy volunteers, ref study IZD334-001",approximately 7 hours
same,Change in plasma IL‐18 levels upon treatment,[11],no significant changes
same,P-gp substrate status,[12],potential substrate
same,Signs of hepatotoxicity,"[13]; 26-week GLP study, rat",no signs of hepatotoxicity
same,"Bacterial, viral, fungal, and other opportunistic infections","[13]; rats, nonclinical toxicology studies",No evidence
same,Inhibitory activity on NLRC4 inflammasome,[14],no inhibitory activity
same,Signs of hepatotoxicity,"[15]; 39-week GLP study, monkey",no signs of hepatotoxicity
same,"Bacterial, viral, fungal, and other opportunistic infections","[15]; monkeys, nonclinical toxicology studies",No evidence
